Measurements from ChEMBL document CHEMBL1130542, “Design and synthesis of an -mannosyl terpenoid as selective inhibitor of P-selectin” (Bioorg Med Chem Lett, 1997).
pIC50: −log10 of the molar value. Active and inactive are the calls of the source. No cut-off for these calls is given here.

Experiments:
[1] = target: T1, E-selectin (Homo sapiens) (UniProt P16581); assay: Inhibitory activity against Selectin E was determined; IA=Inactive
T1 sequence (whole entry): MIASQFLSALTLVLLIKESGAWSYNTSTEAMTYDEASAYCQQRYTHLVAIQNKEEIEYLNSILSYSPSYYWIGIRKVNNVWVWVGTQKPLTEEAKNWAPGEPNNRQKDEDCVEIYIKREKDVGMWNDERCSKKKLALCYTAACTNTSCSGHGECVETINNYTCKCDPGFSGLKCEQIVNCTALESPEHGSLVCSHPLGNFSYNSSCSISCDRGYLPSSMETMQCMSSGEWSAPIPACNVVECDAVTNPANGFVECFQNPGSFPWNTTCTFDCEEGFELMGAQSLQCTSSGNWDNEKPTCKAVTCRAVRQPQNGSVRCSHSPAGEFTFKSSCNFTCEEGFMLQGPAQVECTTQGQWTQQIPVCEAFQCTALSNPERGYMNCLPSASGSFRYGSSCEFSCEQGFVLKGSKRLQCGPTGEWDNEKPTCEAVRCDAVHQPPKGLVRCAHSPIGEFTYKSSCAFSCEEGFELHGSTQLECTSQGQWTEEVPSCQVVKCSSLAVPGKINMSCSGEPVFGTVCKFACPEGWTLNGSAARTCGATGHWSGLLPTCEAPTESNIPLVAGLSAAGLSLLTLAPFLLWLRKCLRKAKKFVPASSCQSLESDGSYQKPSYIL

[2] = target: T2, L-selectin (Homo sapiens) (UniProt P14151); assay: Inhibitory activity against L-selectin was determined; IA=Inactive
T2 sequence (whole entry): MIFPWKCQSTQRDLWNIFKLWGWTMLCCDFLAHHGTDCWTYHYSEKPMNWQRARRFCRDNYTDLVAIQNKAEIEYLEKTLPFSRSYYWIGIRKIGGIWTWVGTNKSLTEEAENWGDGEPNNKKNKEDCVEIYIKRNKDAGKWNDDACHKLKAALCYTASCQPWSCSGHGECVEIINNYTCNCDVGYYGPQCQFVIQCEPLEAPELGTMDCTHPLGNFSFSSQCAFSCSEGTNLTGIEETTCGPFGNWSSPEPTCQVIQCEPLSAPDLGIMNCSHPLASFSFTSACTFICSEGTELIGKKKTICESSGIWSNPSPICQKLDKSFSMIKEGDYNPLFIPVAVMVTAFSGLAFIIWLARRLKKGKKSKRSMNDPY

P-selectin = target: T3, P-selectin (Homo sapiens, UniProt P16109); assay: Inhibitory activity against P-selectin was determined
T3 sequence (P16109 whole entry): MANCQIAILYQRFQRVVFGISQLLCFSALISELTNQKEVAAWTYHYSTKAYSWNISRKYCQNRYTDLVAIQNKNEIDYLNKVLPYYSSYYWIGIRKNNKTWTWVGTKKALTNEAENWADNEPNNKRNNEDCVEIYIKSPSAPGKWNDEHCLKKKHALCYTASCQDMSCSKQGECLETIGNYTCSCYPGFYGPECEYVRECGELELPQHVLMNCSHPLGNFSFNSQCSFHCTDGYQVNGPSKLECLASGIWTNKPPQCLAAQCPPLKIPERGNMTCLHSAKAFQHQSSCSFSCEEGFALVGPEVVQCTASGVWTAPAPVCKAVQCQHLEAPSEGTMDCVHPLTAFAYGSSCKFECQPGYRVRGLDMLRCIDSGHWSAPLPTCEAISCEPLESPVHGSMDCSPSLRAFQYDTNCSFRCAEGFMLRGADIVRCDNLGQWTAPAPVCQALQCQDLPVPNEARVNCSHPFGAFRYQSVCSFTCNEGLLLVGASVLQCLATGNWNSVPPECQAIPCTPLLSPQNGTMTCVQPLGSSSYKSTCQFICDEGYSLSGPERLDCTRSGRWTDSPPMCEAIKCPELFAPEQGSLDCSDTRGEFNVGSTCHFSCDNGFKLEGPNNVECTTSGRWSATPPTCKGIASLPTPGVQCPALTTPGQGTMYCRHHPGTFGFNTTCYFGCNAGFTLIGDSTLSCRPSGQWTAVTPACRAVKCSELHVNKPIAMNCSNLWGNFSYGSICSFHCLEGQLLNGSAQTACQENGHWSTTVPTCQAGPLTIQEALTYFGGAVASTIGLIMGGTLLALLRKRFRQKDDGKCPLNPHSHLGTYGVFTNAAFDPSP

[3] = target: T4, P-selectin (Homo sapiens) (UniProt P16109); assay: Inhibitory activity against P-selectin was determined; IA=Inactive
T4 sequence (whole entry): T3 sequence (P16109 whole entry)

Activity [1] | Activity [2] | pIC50 (P-selectin) | Activity [3] | SMILES
inactive | inactive | 4.22 | – | C[C@@]12CCC[C@@](C)(C(=O)O)C1CC[C@@]13C[C@@H](O[C@H]4O[C@H](CO)[C@@H](O)[C@@H](O)[C@@H]4O)[C@@](C)(CCC12)C3 (stereo partly specified)
inactive | inactive | – | inactive | C[C@@]12CCC[C@@](C)(C(=O)O)C1CC[C@]13C[C@H](O[C@H]4O[C@H](CO)[C@@H](O)[C@@H](O)[C@@H]4O)[C@](O)(CCC12)C3 (stereo partly specified)
